Laboratory results from patent US20100227887A1 (priority 2009, published 2010).

What was measured:
[1] = molecular target: T1, human mGlu 5a receptor (Homo sapiens, UniProt P41594); assay: [3H]MPEP competition binding on membranes of EBNA cells transfected with human mGlu 5a receptor; details: [3H]MPEP (2 nM) competition, 1 h at 4° C., EBNA cell membranes
T1 construct: expressed in transfected cells; host or cells: EBNA cells (transient transfection); cell membrane homogenates
Description: The pharmacological activity of the compounds was tested using the following method: For binding experiments, cDNA encoding human mGlu 5a receptor was transiently transfected into EBNA cells using a procedure described by Schlaeger and Christensen [Cytotechnology 15:1-13 (1998)]. Cell membrane homogenates were stored at −80° C. until the day of assay where upon they were thawed and resuspended and polytronised in 15 mM Tris-HCl, 120 mM NaCl, 100 mM KCl, 25 mM CaCl2, 25 mM MgCl2 binding buffer at pH 7.4 to a final assay concentration of 20 μg protein/well.
Saturation isotherms were determined by addition of twelve [^3H]MPEP concentrations (0.04-100 nM) to these membranes (in a total volume of 200 μl) for 1 h at 4° C. Competition experiments were performed with a fixed concentration of [^3H]MPEP (2 nM) and IC50 values of test compounds evaluated using 11 concentrations (0.3-10,000 nM). Incubations were performed for 1 h at 4° C.
At the end of the incubation, membranes were filtered onto unifilter (96-well white microplate with bonded GF/C filter preincubated 1 h in 0.1% PEI in wash buffer, Packard Bio-Science, Meriden, Conn.) with a Filtermate 96 harvester (Packard BioScience) and washed 3 times with cold 50 mM Tris-HCl, pH 7.4 buffer. Nonspecific binding was measured in the presence of 10 μM MPEP. The radioactivity on the filter was counted (3 min) on a Packard Top-count microplate scintillation counter with quenching correction after addition of 45 μl of microscint 40 (Canberra Packard S. A., Zürich, Switzerland) and shaking for 20 min.
For binding experiments the Ki values of the compounds tested are given. The Ki value is defined by the following formula: […]
in which the IC50 values are those concentrations of the compounds tested which cause 50% inhibition of the competing radioligand ([^3H]MPEP). L is the concentration of radioligand used in the binding experiment and the Kd value of the radioligand is empirically determined for each batch of membranes prepared.

T1 sequence (P41594 21-1180 isoform P41594-2 limits assumed): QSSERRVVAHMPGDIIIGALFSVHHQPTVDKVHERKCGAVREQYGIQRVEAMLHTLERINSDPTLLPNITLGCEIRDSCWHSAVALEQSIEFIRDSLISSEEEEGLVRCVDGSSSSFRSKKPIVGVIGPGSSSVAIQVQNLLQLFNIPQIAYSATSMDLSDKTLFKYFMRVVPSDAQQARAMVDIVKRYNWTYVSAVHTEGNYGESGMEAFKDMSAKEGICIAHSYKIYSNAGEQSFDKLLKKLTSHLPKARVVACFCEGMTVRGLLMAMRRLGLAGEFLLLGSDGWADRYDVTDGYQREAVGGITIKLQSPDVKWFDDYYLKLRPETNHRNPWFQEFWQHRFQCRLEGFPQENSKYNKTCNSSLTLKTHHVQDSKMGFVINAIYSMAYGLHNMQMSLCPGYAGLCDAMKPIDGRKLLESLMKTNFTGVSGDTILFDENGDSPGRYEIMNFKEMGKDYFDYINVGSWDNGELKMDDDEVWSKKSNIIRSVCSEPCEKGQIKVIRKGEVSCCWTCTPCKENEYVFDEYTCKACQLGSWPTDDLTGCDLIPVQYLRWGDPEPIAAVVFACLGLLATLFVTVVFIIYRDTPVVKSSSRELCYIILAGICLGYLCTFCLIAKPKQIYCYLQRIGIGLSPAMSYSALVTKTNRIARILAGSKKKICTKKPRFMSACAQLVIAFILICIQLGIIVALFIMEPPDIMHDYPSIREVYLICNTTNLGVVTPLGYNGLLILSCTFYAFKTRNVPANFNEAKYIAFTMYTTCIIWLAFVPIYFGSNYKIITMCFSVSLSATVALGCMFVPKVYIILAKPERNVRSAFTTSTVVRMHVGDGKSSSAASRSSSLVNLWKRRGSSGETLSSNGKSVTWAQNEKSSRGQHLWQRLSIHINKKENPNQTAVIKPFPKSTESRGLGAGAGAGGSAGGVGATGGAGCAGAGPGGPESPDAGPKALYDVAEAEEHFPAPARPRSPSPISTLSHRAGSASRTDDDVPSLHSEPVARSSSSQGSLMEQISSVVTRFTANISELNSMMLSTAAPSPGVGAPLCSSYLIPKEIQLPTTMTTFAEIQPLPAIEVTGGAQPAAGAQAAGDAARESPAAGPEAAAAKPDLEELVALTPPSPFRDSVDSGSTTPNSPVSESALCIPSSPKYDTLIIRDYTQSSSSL

SMILES | Ki [1] | melting point
Cc1cccc(NC(=O)c2cc(C#N)cc(C)n2)c1 [Example 43, 4-Cyano-6-methyl-pyridine-2-carboxylic acid m-tolylamide] | 9 nM | 160 °C
Cc1cc(C#N)c(C)c(C(=O)Nc2ccc(F)c(C)n2)n1 [Example 28, 4-Cyano-3,6-dimethyl-pyridine-2-carboxylic acid (5-fluoro-6-methyl-pyridin-2-yl)-amide] | – | 201 °C
Cc1cc(C#N)c(C)c(C(=O)Nc2ccc(C#N)cn2)n1 [Example 31, 4-Cyano-3,6-dimethyl-pyridine-2-carboxylic acid (5-cyano-pyridin-2-yl)-amide] | – | 216 °C
COc1cccc(NC(=O)c2cc(C#N)cc(C)n2)c1 [Example 45, 4-Cyano-6-methyl-pyridine-2-carboxylic acid (3-methoxy-phenyl)-amide] | 57 nM | 189 °C
Cc1csc(NC(=O)c2nc(C)cc(C#N)c2C)n1 [Example 30, 4-Cyano-3,6-dimethyl-pyridine-2-carboxylic acid (4-methyl-thiazol-2-yl)-amide] | 37 nM | 199.5 °C
Cc1cc(C#N)c(C)c(C(=O)Nc2ccc(F)cn2)n1 [Example 27, 4-Cyano-3,6-dimethyl-pyridine-2-carboxylic acid (5-fluoro-pyridin-2-yl)-amide] | 31 nM | 196.5 °C
CC(C)c1cc(C#N)cc(C(=O)Nc2ccn(C)n2)n1 [Example 13, 4-Cyano-6-isopropyl-pyridine-2-carboxylic acid (1-methyl-1H-pyrazol-3-yl)-amide] | – | 174 °C
C#Cc1cc(C)nc(C(=O)Nc2ccn(C)n2)c1 [Example 7, 4-Ethynyl-6-methyl-pyridine-2-carboxylic acid (1-methyl-1H-pyrazol-3-yl)-amide] | 33 nM | 226.5 °C
Cc1cc(C#N)cc(C(=O)Nc2cccc(F)c2)n1 [Example 41, 4-Cyano-6-methyl-pyridine-2-carboxylic acid (3-fluoro-phenyl)-amide] | 9 nM | 139 °C
N#Cc1cc(CO)nc(C(=O)Nc2cccc(Cl)c2)c1 [Example 40, 4-Cyano-6-hydroxymethyl-pyridine-2-carboxylic acid (3-chloro-phenyl)-amide] | 44 nM | 167 °C
Cc1cccc(NC(=O)c2cc(C#N)cc(C)n2)n1 [Example 47, 4-Cyano-6-methyl-pyridine-2-carboxylic acid (6-methyl-pyridin-2-yl)-amide] | 18 nM | 243.5 °C
Cc1cc(C#N)cc(C(=O)Nc2ccc(F)cc2)n1 [Example 39, 4-Cyano-6-methyl-pyridine-2-carboxylic acid (4-fluoro-phenyl)-amide] | – | 189 °C
Cc1ccc(NC(=O)c2nc(C)cc(C#N)c2C)nc1 [Example 32, 4-Cyano-3,6-dimethyl-pyridine-2-carboxylic acid (5-methyl-pyridin-2-yl)-amide] | – | 212.5 °C
Cn1ccc(NC(=O)c2cc(C#N)cc(C(F)(F)F)n2)n1 [Example 15, 4-Cyano-6-trifluoromethyl-pyridine-2-carboxylic acid (1-methyl-1H-pyrazol-3-yl)-amide] | – | 190.5 °C
CCc1cc(Br)cc(C(=O)Nc2ccc(F)cn2)n1 [Example 21, 4-Bromo-6-ethyl-pyridine-2-carboxylic acid (5-fluoro-pyridin-2-yl)-amide] | – | 123.5 °C

Results, then the molecule that gave them:

Ki [1] | melting point | SMILES
109 nM | 279 °C | Cc1cc(C#N)cc(C(=O)Nc2ccc(C#N)cn2)n1 [Example 6, 4-Cyano-6-methyl-pyridine-2-carboxylic acid (5-cyano-pyridin-2-yl)-amide]
15 nM | 130.5 °C | Cc1cccc(NC(=O)c2cc(Cl)cc(C)n2)n1 [Example 36, 4-Chloro-6-methyl-pyridine-2-carboxylic acid (6-methyl-pyridin-2-yl)-amide]
8 nM | 233.5 °C | Cc1cc(C#N)cc(C(=O)Nc2ccc(Cl)cn2)n1 [Example 9, 4-Cyano-6-methyl-pyridine-2-carboxylic acid (5-chloro-pyridin-2-yl)-amide]
57 nM | 222 °C | Cc1cc(C#N)cc(C(=O)Nc2ccc(F)c(C)n2)n1 [Example 11]
73 nM | 203.5 °C | Cc1cc(Cl)cc(C(=O)Nc2ccn(C)n2)n1 [Example 2, 4-Chloro-6-methyl-pyridine-2-carboxylic acid (1-methyl-1H-pyrazol-3-yl)-amide]
8 nM | 222.5 °C | Cc1cc(C#N)cc(C(=O)Nc2cccc(Cl)n2)n1 [Example 23, 4-Cyano-6-methyl-pyridine-2-carboxylic acid (6-chloro-pyridin-2-yl)-amide]
– | 151 °C | Cc1cc(Cl)cc(C(=O)Nc2ccc(Cl)cn2)n1 [Example 17, 4-Chloro-6-methyl-pyridine-2-carboxylic acid (5-chloro-pyridin-2-yl)-amide]
61 nM | 181.5 °C | Cc1cc(Br)cc(C(=O)Nc2ccc(F)c(C)n2)n1 [Example 10, 4-Bromo-6-methyl-pyridine-2-carboxylic acid (5-fluoro-6-methyl-pyridin-2-yl)-amide]
109 nM | 159 °C | Cc1ccc(NC(=O)c2cc(Cl)cc(C)n2)nc1 [Example 19, 4-Chloro-6-methyl-pyridine-2-carboxylic acid (5-methyl-pyridin-2-yl)-amide]
55 nM | 174 °C | Cc1cc(Cl)cc(C(=O)Nc2cccc(Cl)c2)n1 [Example 37, 4-Chloro-6-methyl-pyridine-2-carboxylic acid (3-chloro-phenyl)-amide]
– | 221 °C | Cc1cc(Cl)cc(C(=O)Nc2ccnc(Cl)c2)n1 [Example 34, 4-Chloro-6-methyl-pyridine-2-carboxylic acid (2-chloro-pyridin-4-yl)-amide]
14 nM | 176 °C | Cc1cc(Cl)cc(C(=O)Nc2nc(C)cs2)n1 [Example 20, 4-Chloro-6-methyl-pyridine-2-carboxylic acid (4-methyl-thiazol-2-yl)-amide]
– | 123 °C | Cc1cc(Cl)cc(C(=O)Nc2cccc(F)c2)n1 [Example 52, 4-Chloro-6-methyl-pyridine-2-carboxylic acid (3-fluoro-phenyl)-amide]
97 nM | 264 °C | Cc1cc(C#N)c(C)c(C(=O)Nc2ccc(Cl)cn2)n1 [Example 29, 4-Cyano-3,6-dimethyl-pyridine-2-carboxylic acid (5-chloro-pyridin-2-yl)-amide]
6 nM | 204.5 °C | Cc1cc(C#N)cc(C(=O)Nc2ccc(F)cn2)n1 [Example 4, 4-Cyano-6-methyl-pyridine-2-carboxylic acid (5-fluoro-pyridin-2-yl)-amide]
– | 162 °C | Cc1cc(NC(=O)c2cc(Cl)cc(C)n2)ccn1 [Example 53, 4-Chloro-6-methyl-pyridine-2-carboxylic acid (2-methyl-pyridin-4-yl)-amide]
– | 208 °C | N#Cc1cc(C(=O)Nc2ccc(Cl)cn2)nc(C(F)(F)F)c1 [Example 33, 4-Cyano-6-trifluoromethyl-pyridine-2-carboxylic acid (5-chloro-pyridin-2-yl)-amide]
